Test results reported in article PMC9628480, “Discovery and structural characterization of chicoric acid as a SARS-CoV-2 nucleocapsid protein ligand and RNA binding disruptor” (Scientific Reports, 2022).
Where “and” joins values, the source holds several entries; their conditions need not be identical. Equal values may be shown once. Read-outs that look alike come from different tables or passages of the source. Numbered stars: 1 amine (or outer) side, 2 acyl side, 3 side chain; on linkers, the order of the positions; unused ones are H or OH. Bridge positions count the residues as written; N and C are the ends. Square brackets hold non-standard residues; d marks the D form. Peptide text beside a SMILES is read from it. * marks the point of attachment. hTyr(3S-OH,4S-OH,3'-OSO3H) = N[C@H](C(=O)O)[C@H](O)[C@@H](O)c1ccc(O)c(OS(=O)(=O)O)c1; Orn(4R-OH,5R-OH) = O=C([C@H](C[C@@H](O)[C@@H](O)N[*:3])N[*:1])[*:2]; Pro(3S-OH,4S-Me) = C[C@H]1CN[C@H](C(=O)O)[C@H]1O; X1 = CCCCCOc1ccc(-c2cc(-c3ccc(C(=O)*)cc3)no2)cc1; Gln(3R-OH) = NC(=O)C[C@@H](O)[C@H](N)C(=O)O; X2 = CC(C)CCCCCCCCC[C@H](CC(=O)[*:1])O[*:2]; Hyp = O=C(O)[C@@H]1C[C@@H](O)CN1

Legend:
[1] = biological target: T1, SARS-CoV-2 N protein-RNA1 interaction (Severe acute respiratory syndrome coronavirus 2, UniProt P0DTC9); test: biochemical; format: binding; details: for loss in IC50 values in comparison to CA: single carboxylate at C1 versus CA
T1 construct: made in house; host or cells: Escherichia coli BL21 (DE3)

SARS-CoV-2 [2] = test: SARS-CoV-2 replication assay in Vero CCL81 cells (plaque assay); format: cell-based
SARS-CoV-2 [3] = test: SARS-CoV-2 replication assay in Calu-3 cells (plaque assay); format: cell-based
SARS-CoV-2 particles = test: Virucidal assay in Vero CCL-81 cells; format: cell-based; details: particles incubated with CA 25 or 100 µM for 1 h
SARS-CoV-2 [4] = details: cited from earlier work
multiple human viruses = details: cited from earlier work
N protein-RNA1 complex = biological target: T2, N protein-RNA1 complex (Severe acute respiratory syndrome coronavirus 2, UniProt P0DTC9); format: binding, SARS-CoV-2; details: protein:compound 1:2 ratio
T2 construct: made in house; host or cells: Escherichia coli BL21 (DE3)

[5] = biological target: T3, SARS-CoV-2 N protein (full-length) (Severe acute respiratory syndrome coronavirus 2, UniProt P0DTC9); test: DLS aggregation assay of N protein; details: compound 20 µM, two-fold molar excess
T3 construct: made in house; host or cells: Escherichia coli BL21 (DE3)
Method: Aggregation assays were performed with the full-length N protein diluted to 10 µM in 50 mM sodium phosphate buffer, 100 mM NaCl (pH, 7.6), with subsequent addition of 20 µM of each test compounds or 1% DMSO used as diluent. […] Samples were evaluated by DLS in a ZetaSizer NanoS (Malvern) equipment, at 10 °C, using default parameters set by the equipment.

[6] = biological target: T1, SARS-CoV-2 N protein-RNA1 interaction; test: Primary FP HTS at 20 µM compound; format: binding; details: compound 20 µM
[7] = read-out: IC50 for blocking the N protein-RNA1 interaction
[8] = IC50 for blocking the N protein-RNA1 interaction

Compound Cc1cc(/C=C(\C#N)C(=O)Nc2cccc(Br)c2)c(C)n1-c1ccc(C(=O)O)cc1 [RNPA1000] has an IC50 [1, 7] of 9.6 µM.

In the case of O=C(/C=C/c1ccc(O)c(O)c1)O[C@H]1[C@H](O)C[C@](O)(C(=O)O)C[C@H]1OC(=O)/C=C/c1ccc(O)c(O)c1 [4,5-Dicaffeoylquinic acid], the IC50 [1, 7] is reported as 3 µM and the “loss in IC50 values in comparison to CA” value [1] is reported as ~ 10 fold.

For COc1ccc2c(O[C@@H]3C[C@H]4C(=O)N[C@]5(C(=O)NS(=O)(=O)C6CC6)C[C@H]5/C=C\CCCCN(C)C(=O)[C@@H]4C3)cc(-c3nc(C(C)C)cs3)nc2c1C [Simeprevir], the IC50 [1, 8] was 16.5 µM.

O=C(OC[C@H]1O[C@@H](OC(=O)c2cc(O)c(O)c(O)c2)[C@H](OC(=O)c2cc(O)c(O)c(O)c2)[C@@H](OC(=O)c2cc(O)c(O)c(O)c2)[C@@H]1OC(=O)c1cc(O)c(O)c(O)c1)c1cc(O)c(O)c(O)c1 [Pentagalloylglucose] showed an IC50 [1, 8] of 11.6 µM.

In the case of COc1ccc2cc(-c3cc(-c4cc(Cl)cc(Cl)c4)nn3[C@@H](C)c3ccc(C(=O)NCCC(=O)O)cc3)ccc2c1 [MK 0893], the IC50 [1, 8] is reported as 14.4 µM.

For O=C(O)c1cc(O)c(O)c(O)c1 [Gallic acid], the IC50 [1, 8] was 23.3 µM.

O=C(O)c1cc(O)c2c(c1)[C@H]([C@H]1c3cc(C(=O)O)cc(O)c3C(=O)c3c(O[C@@H]4O[C@H](CO)[C@@H](O)[C@H](O)[C@H]4O)cccc31)c1cccc(O[C@@H]3O[C@H](CO)[C@@H](O)[C@H](O)[C@H]3O)c1C2=O [Sennoside A] showed an IC50 [1, 8] of 5.7 µM.

C[C@@H](O)[C@H]1C(=O)N2C(C(=O)O)=C(S[C@@H]3CN[C@H](C(=O)Nc4cccc(C(=O)O)c4)C3)[C@H](C)[C@H]12 [Ertapenem sodium] gave an IC50 [1, 7] of 13.8 µM.

In the case of CCCCCCO[C@@H](C)c1cccc(-c2csc(NC(=O)c3cc(Cl)c(/C=C(\C)C(=O)O)c(Cl)c3)n2)c1OC [Lusutrombopag], the IC50 [1, 8] is reported as 6 µM.

For Cc1cc2c(C(C)C)c(O)c(O)c(C=O)c2c(O)c1-c1c(C)cc2c(C(C)C)c(O)c(O)c(C=O)c2c1O [(R)-(-)-Gossypol acetic acid], the IC50 [1, 7] was 6.4 µM.

Work on CC(C)CCCCCCCCC[C@@H]1CC(=O)N[C@@H](CCC(=O)O)C(=O)N[C@@H](CC(C)C)C(=O)N[C@H](CC(C)C)C(=O)N[C@@H](C(C)C)C(=O)N[C@@H](CC(=O)O)C(=O)N[C@H](CC(C)C)C(=O)N[C@@H](CC(C)C)C(=O)O1 [Surfactin] (EL[dL]VD[dL]L; linker N-C via X2) yielded an IC50 [1, 8] of 11.1 µM.

For O=C(/C=C/c1ccc(O)c(O)c1)O[C@@H]1CC(O)(C(=O)O)C[C@@H](OC(=O)/C=C/c2ccc(O)c(O)c2)C1O (some centres unmarked) [Isochlorogenic acid A, 3,5-dicaffeoylquinic acid], the IC50 [1, 7] was 5.5 µM and the “loss in IC50 values in comparison to CA” value [1] was ~ 10 fold.

With Oc1c(Cl)cc(Cl)c(Cl)c1Cc1c(O)c(Cl)cc(Cl)c1Cl [Hexachlorophene] the IC50 [1, 8] was 13 µM.

O=c1ccc2[n+]([O-])c3ccc(O)cc3oc-2c1 [Resazurin] showed an IC50 [1, 8] of 10.5 µM.

Compound Oc1c(Cl)cc(Cl)cc1Sc1cc(Cl)cc(Cl)c1O [Bithionol] has an IC50 [1, 8] of 23 µM.

CCCCCCCC/C=C\CCCCCCCC(=O)O [Oleic acid] gave an IC50 [1, 8] of 15.7 µM.

With L-Chicoric acid the “antiviral activity at 25 and 100 µM” value (SARS-CoV-2 [2]) was “antiviral activity at 100 µM only”, the “reduction in infectious viral load” value (SARS-CoV-2 [2]) was “tenfold” and the “antiviral activity at 25 and 100 µM” value (SARS-CoV-2 [3]) was “antiviral activity at 100 µM only”. The “reduction in infectious viral load” value (SARS-CoV-2 [3]) was 100 fold and the “virucidal activity against SARS-CoV-2” value (SARS-CoV-2 particles) was “slight virucidal activity”.

In the case of CC(C)(Sc1cc(C(C)(C)C)c(O)c(C(C)(C)C)c1)Sc1cc(C(C)(C)C)c(OC(=O)CCC(=O)O)c(C(C)(C)C)c1 [Succinobucol], the IC50 [1, 8] is reported as 8.1 µM.

Work on CCCCCCCCCCCCCCCc1cccc(O)c1C(=O)O [Anacardic Acid] yielded an IC50 [1, 7] of 7.7 µM.

Compound CCCCCOc1ccc(-c2cc(-c3ccc(C(=O)N[C@H]4C[C@@H](O)[C@@H](O)NC(=O)[C@@H]5[C@@H](O)[C@@H](C)CN5C(=O)[C@H]([C@H](O)CC(N)=O)NC(=O)[C@H]([C@H](O)[C@@H](O)c5ccc(O)c(OS(=O)(=O)O)c5)NC(=O)[C@@H]5C[C@@H](O)CN5C(=O)[C@H]([C@@H](C)O)NC4=O)cc3)no2)cc1 [Micafungin] (X1-[Orn(4R-OH,5R-OH)]T[Hyp][hTyr(3S-OH,4S-OH,3'-OSO3H)][Gln(3R-OH)][Pro(3S-OH,4S-Me)]; lactam 1-C) has an IC50 [1, 8] of 10.4 µM.

For COc1cc(C(=O)O)ccc1NC(=O)[C@@H]1N[C@@H](CC(C)(C)C)[C@](C#N)(c2ccc(Cl)cc2F)[C@H]1c1cccc(Cl)c1F [Idasanutlin], the IC50 [1, 8] was 6.5 µM.

Work on COc1ccc2c(c1)C=C1Cn3c-2c(C2CCCCC2)c2ccc(cc23)C(=O)NS(=O)(=O)N(C)CCOCCN(C)C1=O [TMC647055] yielded an IC50 [1, 8] of 10 µM.

For CC1=NN(c2ccc(C)c(C)c2)C(=O)/C1=N\Nc1cccc(-c2cccc(C(=O)O)c2)c1O [Eltrombopag], the IC50 [1, 8] was 7.1 µM and 8.1 µM.

In the case of Cc1ccc(C(=O)Nc2ccc(S(=O)(=O)O)c3cc(S(=O)(=O)O)cc(S(=O)(=O)O)c23)cc1NC(=O)c1cccc(NC(=O)Nc2cccc(C(=O)Nc3cc(C(=O)Nc4ccc(S(=O)(=O)O)c5cc(S(=O)(=O)O)cc(S(=O)(=O)O)c45)ccc3C)c2)c1 [Suramin], the IC50 [1, 8] is listed as 0.8 µM and the “concentration reported to inhibit SARS-CoV-2 infection in cell culture” value (SARS-CoV-2 [4]) is listed as 20 µM.

Tannic acid showed an IC50 [1, 7] of 1.4 µM.

For O=C1OC[C@H]2OC(O)[C@H](O)[C@@H](O)[C@@H]2OC(=O)c2cc(O)c(O)c(O)c2-c2c(O)c(O)c3oc(=O)c4c(c(O)c(O)c5oc(=O)c2c3c54)-c2c1cc(O)c(O)c2O (mixture of isomers) [Punicalin], the IC50 [1, 8] is given as 0.7 µM and the “in vitro antiviral potencies” value (multiple human viruses) is given as “low micromolar range”.

With O=C1O[C@H]2[C@@H]3OC(=O)c4cc(O)c(O)c(O)c4-c4c(O)c(O)c5oc(=O)c6c(c(O)c(O)c7oc(=O)c4c5c76)-c4c(cc(O)c(O)c4O)C(=O)OC[C@H]3OC(O)[C@@H]2OC(=O)c2cc(O)c(O)c(O)c2-c2c1cc(O)c(O)c2O (mixture of isomers) [Punicalagin] the IC50 [1, 8] was 0.7 µM, the “binding affinity of the N protein to RNA1 in the presence of compound” value (N protein-RNA1 complex) was “significantly reduced” and the “effect on hydrodynamic radius (Rh) / oligomeric state of the N protein (DLS)” value [5] was “appears to cause N protein aggregation”. For the same compound, the “in vitro antiviral potencies” value (multiple human viruses) was “low micromolar range”.

Compound O=C(NCc1ccc(Oc2ccccc2)cc1)c1nc(-c2cc(Br)c(O)c(Br)c2)no1 [IOWH-032] has an IC50 [1, 7] of 7.7 µM.

For O=C(O)C[C@@H]1C(=O)O[C@H]2[C@H](OC(=O)c3cc(O)c(O)c(O)c3)[C@@H](OC(=O)c3cc(O)c(O)c4c3[C@H]1[C@H](O)C(=O)O4)[C@H](OC(=O)c1cc(O)c(O)c(O)c1)O[C@@H]2COC(=O)c1cc(O)c(O)c(O)c1 [Chebulinic acid], the “in vitro antiviral potencies” value (multiple human viruses) is listed as “low micromolar range”.

Compound Verteporfin has an IC50 [1, 7] of 10.8 µM.

CN(Cc1ccc(C(C)(C)C)cc1)Cc1cccc2ccccc12 [Butenafine] showed an IC50 [1, 8] of 15.7 µM.

In the case of C[C@@H]1NC(=O)[C@@H]2CCCN2C(=O)[C@H](CC(N)=O)NC(=O)[C@@H]2CSSC[C@H](N)C(=O)N[C@H]3CSSC[C@H](NC1=O)C(=O)N[C@@H]([C@@H](C)O)C(=O)NCC(=O)N[C@H](C(=O)N[C@@H](Cc1ccc(O)cc1)C(=O)O)CSSC[C@H](NC(=O)[C@H](Cc1ccc(O)cc1)NC(=O)[C@H](CCC(=O)O)NC3=O)C(=O)N2 [Linaclotide] (H-CCEYCCNPACTGCY-OH; disulfide 1-6, 2-10, 5-13), the IC50 [1, 8] is reported as 5.5 µM.

In the case of O=C(/C=C/c1ccc(O)c(O)c1)O[C@H](Cc1ccc(O)c(O)c1)C(=O)O [rosmarinic acid], the “N protein-RNA1 disruption” value [6] is reported as “low”.

For O=C(O[C@@H]1O[C@@H]2COC(=O)c3cc(O)c(O)c(O)c3-c3c(cc(O)c(O)c3O)C(=O)O[C@H]([C@H]1O)[C@@H]2O)c1cc(O)c(O)c(O)c1 [Corilagin], the IC50 [1, 8] was 2.4 µM.

COc1cc(C(=O)NS(=O)(=O)c2ccccc2C)ccc1Cc1cn(C)c2ccc(NC(=O)OC3CCCC3)cc12 [Zafirlukast] showed an IC50 [1, 8] of 10.4 µM.

Cc1ccnc(NS(=O)(=O)c2ccc(N)cc2)n1 [Sulfamerazine] gave an IC50 [1, 8] of 6.5 µM.

With C[C@@H]1O[C@@H](O[C@@H]2[C@@H](O)[C@H](OCCc3ccc(O)c(O)c3)O[C@H](CO)[C@H]2OC(=O)/C=C/c2ccc(O)c(O)c2)[C@H](O)[C@H](O)[C@H]1O [verbascoside] the “N protein-RNA1 disruption” value [6] was “low”.

Work on CCCCCCCCCCCC1=C(O)C(=O)C=C(O)C1=O [Embelin] yielded an IC50 [1, 8] of 5 µM.

In the case of CC(C)=CCOc1ccc(/C=C/C(=O)c2ccc(OCC=C(C)C)cc2OCC(=O)O)cc1 [Sofalcone], the IC50 [1, 8] is reported as 18.5 µM.

O=C(Nc1cccc2c(=O)cc(-c3nnn[nH]3)oc12)c1ccc(OCCCCc2ccccc2)cc1 [Pranlukast (hemihydrate), Pranlukast] gave an IC50 [1, 8] of 7.8 µM.

With O=S(=O)(O)c1ccc(N=C2C=CC(=C(c3ccc(Nc4ccc(S(=O)(=O)O)cc4)cc3)c3ccc(Nc4ccc(S(=O)(=O)O)cc4)cc3)C=C2)cc1 [Methyl Blue] the IC50 [1, 7] was 4.2 µM.

Work on Cc1cc2c(C(C)C)c(O)c(O)c(C=O)c2c(O)c1-c1c(C)cc2c(C(C)C)c(O)c(O)c(C=O)c2c1O [Gossypol acetic acid] yielded an IC50 [1, 8] of 7.1 µM.
